Earlier results as cited in PubChem BioAssay AID1259409 (Chemical Carcinogenesis Research Information System (CCRIS), 2018).

Test system: rodent chemically induced tumor inhibition, incidence and multiplicity
Experiment: CCRIS tumor inhibitor studies

Which “tumour outcome (control, treated, inhibition, significance)” value (Carcinogen: N-BUTYL-N-(4-HYDROXYBUTYL)NITROSAMINE, 3817-11-6, Dose [Inhibitor]: 0, 1% IN DRINKING WATER FOR 31 WK BEGINNING POST CARCINOGEN DOSE (STUDY DURATION: 36 WK), Route [Inhibitor]: ORAL, Species: RAT, Strain/Sex: F344/MALE, Target Tissue: Type of Lesion: URINARY BLADDER: CARCINOMA, Dose [Carcinogen]: 0.05% IN DRINKING WATER FOR 4 WK, Promoter: BUTYLATED HYDROXYANISOLE, 25013-16-5) does the source give for `N` here?
Its value is 5/15 (33%), 3/15 (20%), 39%, not significant.

What about the “tumour outcome (control, treated, inhibition, significance)” value (Carcinogen: N-BUTYL-N-(4-HYDROXYBUTYL)NITROSAMINE, 3817-11-6, Dose [Inhibitor]: 0, 1% IN DRINKING WATER FOR 31 WK BEGINNING POST CARCINOGEN DOSE (STUDY DURATION: 36 WK), Route [Inhibitor]: ORAL, Species: RAT, Strain/Sex: F344/MALE, Target Tissue: Type of Lesion: URINARY BLADDER: CARCINOMA, Dose [Carcinogen]: 0.05% IN DRINKING WATER FOR 4 WK, Promoter: SODIUM BICARBONATE, 144-55-8) of the same compound?
Its value is 8/15 (53%), 4/15 (27%), 49%, not significant.

And the “tumour outcome (control, treated, inhibition, significance)” value (Carcinogen: N-BUTYL-N-(4-HYDROXYBUTYL)NITROSAMINE, 3817-11-6, Dose [Inhibitor]: 0, 1% IN DRINKING WATER FOR 31 WK BEGINNING POST CARCINOGEN DOSE (STUDY DURATION: 36 WK), Route [Inhibitor]: ORAL, Species: RAT, Strain/Sex: F344/MALE, Target Tissue: Type of Lesion: URINARY BLADDER: PAPILLOMA, Dose [Carcinogen]: 0.05% IN DRINKING WATER FOR 4 WK, Promoter: BUTYLATED HYDROXYANISOLE, 25013-16-5)?
The value was 8/15 (53%), 8/15 (53%), 0%, not significant.

What about the “tumour outcome (control, treated, inhibition, significance)” value (Carcinogen: N-BUTYL-N-(4-HYDROXYBUTYL)NITROSAMINE, 3817-11-6, Dose [Inhibitor]: 0, 1% IN DRINKING WATER FOR 31 WK BEGINNING POST CARCINOGEN DOSE (STUDY DURATION: 36 WK), Route [Inhibitor]: ORAL, Species: RAT, Strain/Sex: F344/MALE, Target Tissue: Type of Lesion: URINARY BLADDER: PAPILLOMA, Dose [Carcinogen]: 0.05% IN DRINKING WATER FOR 4 WK, Promoter: SODIUM BICARBONATE, 144-55-8) of the same compound?
The value was 9/15 (60%), 8/15 (53%), 12%, not significant.

For `CC1=C(/C=C/C(C)=C/C=C/C(C)=C\C(=O)Nc2ccc(O)cc2)C(C)(C)CCC1`, which “tumour outcome (control, treated, inhibition, significance)” value (Carcinogen: N-BUTYL-N-(4-HYDROXYBUTYL)NITROSAMINE, 3817-11-6, Dose [Inhibitor]: 1.5 MMOL/KG DIET DAILY FOR 153 D STARTING ONE WK AFTER THE FINAL CARCINOGEN DOSE (STUDY DURATION: 210 D), Route [Inhibitor]: ORAL, Species: MOUSE, Strain/Sex: BDF/MALE, Target Tissue: Type of Lesion: URINARY BLADDER: TRANSITIONAL CELL CARCINOMA, Dose [Carcinogen]: 7.5 MG 1/WK FOR 8 WK, Promoter: NONE USED) is on record?
Its value is 35/99 (35%), 21/99 (21%), 40%, p<0.05.

What about the “tumour outcome (control, treated, inhibition, significance)” value (Carcinogen: N-BUTYL-N-(4-HYDROXYBUTYL)NITROSAMINE, 3817-11-6, Dose [Inhibitor]: 1.5 MMOL/KG/D IN DIET FOR 153 D STARTING 1 WK POST CARCINOGEN TREATMENT (STUDY DURATION: 210 D), Route [Inhibitor]: ORAL, Species: MOUSE, Strain/Sex: BDF/MALE, Target Tissue: Type of Lesion: URINARY BLADDER: TRANSITIONAL CELL CARCINOMA, Dose [Carcinogen]: 7.5 MG 1/WK FOR 8 WK, Promoter: NONE USED) of the same compound?
Its value is 35/99 (35%), 21/99 (21%), 40%, p<0.05.

Which “tumour outcome (control, treated, inhibition, significance)” value (Carcinogen: 7,12-DIMETHYLBENZ[A]ANTHRACENE, 57-97-6, Dose [Inhibitor]: 1.0% IN POWDERED DIET BEGINNING 1 WK POST CARCINOGEN DOSE FOR 51 WK (STUDY DURATION: 52 WK), Route [Inhibitor]: ORAL, Species: RAT, Strain/Sex: SPRAGUE-DAWLEY/FEMALE, Target Tissue: Type of Lesion: EAR DUCT: BENIGN TUMOR, Dose [Carcinogen]: 2.5 MG/100 G BW IN 0.5 ML SESAME OIL ONCE, Promoter: NONE USED) does the source give for `O=C(O)CCSCCC(=O)O` here?
Its value is 7/19 (37%), 2/19 (11%), 72%, not calculated.

What about the “tumour outcome (control, treated, inhibition, significance)” value (Carcinogen: 7,12-DIMETHYLBENZ[A]ANTHRACENE, 57-97-6, Dose [Inhibitor]: 1.0% IN POWDERED DIET BEGINNING 1 WK POST CARCINOGEN DOSE FOR 51 WK (STUDY DURATION: 52 WK), Route [Inhibitor]: ORAL, Species: RAT, Strain/Sex: SPRAGUE-DAWLEY/FEMALE, Target Tissue: Type of Lesion: MAMMARY GLAND: FIBROADENOMA, Dose [Carcinogen]: 2.5 MG/100 G BW IN 0.5 ML SESAME OIL ONCE, Promoter: NONE USED) of the same compound?
The value was 15/19 (79%), 9/19 (47%), 40%, not calculated.

With `C[C@H]1CC[C@@]2(C)C(=CC[C@@H]3[C@@H]2CC[C@]2(C)C(=O)CC[C@@H]32)C1` as the compound, how does the “tumour outcome (control, treated, inhibition, significance)” value (Carcinogen: 7,12-DIMETHYLBENZ[A]ANTHRACENE, 57-97-6, Dose [Inhibitor]: 100 UG IN 0.2 ML ACETONE 1 HR BEFORE EACH WEEKLY APPLICATION OF DMBA (STUDY DURATION: 290 D), Route [Inhibitor]: DERMAL, Species: MOUSE, Strain/Sex: CD-1/FEMALE, Target Tissue: Type of Lesion: SKIN: CARCINOMA, Dose [Carcinogen]: 200 NMOL AT 6-7 WK OF AGE THEN 100 NMOL IN 0.2 ML ACETONE 1 WK BEGINNING 2 WK LATER, Promoter: NONE USED) read?
Its value is 14/28 (50%), 1/28 (4%), 92%, p<0.001.

What about the outcome (Carcinogen: 7,12-DIMETHYLBENZ[A]ANTHRACENE, 57-97-6, Dose [Inhibitor]: 400 UG IN 0.2 ML ACETONE 1 HR BEFORE EACH WEEKLY APPLICATION OF DMBA (STUDY DURATION: 290 D), Route [Inhibitor]: DERMAL, Species: MOUSE, Strain/Sex: CD-1/FEMALE, Target Tissue: Type of Lesion: SKIN: CARCINOMA, Dose [Carcinogen]: 200 NMOL AT 6-7 WK OF AGE THEN 100 NMOL IN 0.2 ML ACETONE 1/WK BEGINNING 2 WK LATER, Promoter: NONE USED) of the same compound?
The outcome was 14/28 (50%), 3/29 (10), 80%, p<0.001.

For `CCCC(=O)C1=C(O)C(Cc2c(O)c(C)c(OC)c(C(=O)CCC)c2O)=C(O)C(C)(C)C1=O`, which “tumour outcome (control, treated, inhibition, significance)” value (Carcinogen: 7,12-DIMETHYLBENZ[A]ANTHRACENE [57-97-6], Dose [Inhibitor]: 85 NMOL/G IN 0.1 ML ACETONE 2X/WK FOR 20 WK 1 HR PRIOR TO EACH PROMOTER DOSE BEGINNING 1 WK POST LAST CARCINOGEN DOSE (S, Route [Inhibitor]: DERMAL, Species: MOUSE, Strain/Sex: ICR/FEMALE, Target Tissue: Type of Lesion: SKIN: PAPILLOMA, Dose [Carcinogen]: 390 NMOL IN 0.1 ML ACETONE ONCE (STUDY DURATION: 21 WK), Promoter: 12-O-TETRADECANOYL-13-ACETATE [16561-29-8]) is on record?
The value was 100%, 85%, 15%, not calculated.
